{"source": "paper PMC8551077", "about": "“Conditions for maintenance of hepatocyte differentiation and function in 3D cultures” (iScience, 2021)", "key": {"[1]": {"tested_on": "primary human hepatocytes (PHH) spheroids", "settings": "14 days of treatment, preliminary", "method": "To compare how the best performing media influenced the DILI response, a similar approach but in the 384-well format we performed a preliminary hepatotoxicity study (Figure S6). Five prototypic compounds from the previous study were tested in HMM, WENG, and WENG+ media. […] Hepatotoxicity was evaluated after chronic exposure to each of the five drug compounds at 1×, 5×, and 20× times their clinical Cmax concentrations for two weeks, as outlined by [Vorrink et al., (2018)].\nATP conent (expressed as relative light units; RLU) was used to measure the energy status of the PHH spheroids. The spheroids were incubated in AccuMax cell dissociation solution (Thermo Fisher Scientific) for 30 min at 37°C followed by centrifugation at 100 x g for 5 min. The CellTiter-Glo3D assay (Promega, Madison, Wisconsin) was used, with slight modifications. Briefly, the plate was first left for 30 min at room temperature for temperature equilibration. Thereafter CellTiter-Glo® 3D was added, and the plate left in room temperature for another 20 min on a horizontal plate shaker. The luminescence was measured on a Spark plate reader (TECAN). The results are presented as mean values +/- SD of eight technical replicates performed on three independent occasions.\nPreliminary studies of hepatotoxicity were conducted as previously described for the 96-well format ([Vorrink et al., 2018]). Briefly, PHHs were cultured in 384-well plates in HMM, WENG or WENG+ media for 1 week to form spheroids. The compounds were dissolved in dimethyl sulfoxide (DMSO), and added to the wells at a final DMSO concentration of 0.5%. As in the Vorrink et al. study, final concentrations of 1×, 5×, and 20× times the clinical Cmax of the compounds were used The exposure medium was changed every 48–72h for the 14 days of treatment. On the last day, PHH viability was assessed by measurement of ATP content (see above) and a viability below 80% of control levels was considered hepatotoxic ([Vorrink et al., 2018])."}, "PHH spheroids": {"tested_on": "PHH spheroids", "settings": "96-well format, medium similar to WEHG; ref Vorrink et al., 2018; cited from earlier work"}, "albumin": {"tested_on": "albumin", "settings": "ref Davies and Anderson, 1997; U. S. Food and Drug Administration, 2019; cited from earlier work"}, "[2]": {"settings": "all media (HMM, WENG, WENG+), all concentrations (1×, 5×, 20× clinical Cmax), controls gave correct results"}, "[3]": {"settings": "WENG+ medium (zinc-supplemented), 1×, 5×, 20× clinical Cmax"}}, "note": "Read-outs that look alike come from different tables or passages of the source.", "data": [{"molecule": "Cn1cnc([N+](=O)[O-])c1Sc1ncnc2nc[nH]c12", "note": "[azathioprine]", "values": [{"measurement": "Hepatotoxicity (DILI signal; viability below 80% of control levels considered hepatotoxic)", "setting": "[1]; [2]", "result": "positive"}, {"measurement": "DILI classification in the previous study", "setting": "PHH spheroids", "result": "DILI-positive"}]}, {"molecule": "CN(C)CCCN1c2ccccc2Sc2ccc(Cl)cc21", "note": "[chlorpromazine]", "values": [{"measurement": "Hepatotoxicity (DILI signal; viability below 80% of control levels considered hepatotoxic)", "setting": "[1]; [3]", "result": "did not show a DILI signal"}, {"measurement": "DILI classification in the previous study", "setting": "PHH spheroids", "result": "DILI-positive"}]}, {"molecule": "O=C(O)Cc1ccccc1Nc1c(Cl)cccc1Cl", "note": "[diclofenac]", "values": [{"measurement": "Hepatotoxicity (DILI signal; viability below 80% of control levels considered hepatotoxic)", "setting": "[1]; [3]", "result": "did not show a DILI signal"}, {"measurement": "DILI classification in the previous study", "setting": "PHH spheroids", "result": "DILI-positive"}]}, {"molecule": "OC(Cn1cncn1)(Cn1cncn1)c1ccc(F)cc1F", "note": "[fluconazole]", "values": [{"measurement": "Hepatotoxicity (DILI signal; viability below 80% of control levels considered hepatotoxic)", "setting": "[1]; HMM medium, 1×, 5×, 20× clinical Cmax", "result": "strong DILI signal"}, {"measurement": "Hepatotoxicity (DILI signal; viability below 80% of control levels considered hepatotoxic)", "setting": "[1]; WENG medium, 1×, 5×, 20× clinical Cmax", "result": "strong DILI signal"}, {"measurement": "Hepatotoxicity (DILI signal; viability below 80% of control levels considered hepatotoxic)", "setting": "[1]; [3]", "result": "false negative response"}, {"measurement": "DILI classification in the previous study", "setting": "PHH spheroids", "result": "false DILI-negative"}]}, {"molecule": "Cc1ncc2n1-c1ccc(Cl)cc1C(c1ccccc1F)=NC2", "note": "[midazolam]", "values": [{"measurement": "Binding to albumin", "setting": "albumin", "result": "highly bound"}]}, {"molecule": "CC(=O)CC(c1ccccc1)c1c(O)c2ccccc2oc1=O", "note": "(stereo not drawn) [warfarin]", "values": [{"measurement": "Hepatotoxicity (DILI signal; viability below 80% of control levels considered hepatotoxic)", "setting": "[1]; [2]", "result": "negative"}]}]}
